In patent US7897369B2, “Isoprenoid wax ester synthases, isoprenoid acyl CoA-synthetases, and uses thereof” (Regents of the University of Minnesota, priority 2007, dated 2011):
Entries after “also recorded” stand apart in the source; their conditions may differ.

What was measured:
WS2 [1] = target: T1, WS2 (Marinobacter nauticus, UniProt A3RE51); assay: DGAT assay (TLC); format: biochemical, Marinobacter hydrocarbonoclasticus DSM 8798; details: oleoyl-CoA as acyl donor, dipalmitoyl-glycerol as acyl acceptor
T1 sequence (A3RE51 entry or part of it): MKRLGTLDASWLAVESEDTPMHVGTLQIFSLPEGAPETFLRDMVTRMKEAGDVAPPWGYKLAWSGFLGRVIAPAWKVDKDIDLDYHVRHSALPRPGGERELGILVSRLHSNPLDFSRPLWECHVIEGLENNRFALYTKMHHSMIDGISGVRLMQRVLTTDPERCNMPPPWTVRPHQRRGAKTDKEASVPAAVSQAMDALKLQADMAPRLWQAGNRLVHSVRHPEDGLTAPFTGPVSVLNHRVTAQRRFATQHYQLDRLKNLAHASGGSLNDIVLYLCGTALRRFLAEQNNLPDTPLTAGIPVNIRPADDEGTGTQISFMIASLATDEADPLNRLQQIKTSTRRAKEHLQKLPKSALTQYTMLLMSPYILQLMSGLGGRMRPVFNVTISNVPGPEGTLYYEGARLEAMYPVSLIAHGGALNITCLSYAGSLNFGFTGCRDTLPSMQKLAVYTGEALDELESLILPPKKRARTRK
Text: (§1) TLC plates were stained with either iodine vapor or anisaldehyde solution as described earlier (Jork et al., 1990. Thin-layer chromatography reagents and detection methods, vol. 1a. Physical and chemical detection methods: fundamentals, reagents. VHC, Weinheim, Germany). Palmitoyl palmitate and triolein were used as WE and TAG reference compounds, respectively.

WS1 [2] = assay: DGAT assay (TLC); format: biochemical, Marinobacter hydrocarbonoclasticus DSM 8798; details: oleoyl-CoA as acyl donor, dipalmitoyl-glycerol as acyl acceptor
Text: as §1

WS2 [3] = target: T1, WS2; assay: WS2 kinetics on ethanol and oleoyl-CoA (DTNB); format: biochemical, Marinobacter hydrocarbonoclasticus
Description: […] Assay reactions were pre-incubated at 37° C. for 5 minutes before the reactions were started by the addition of enzyme.

Acinetobacter WS/DGAT = target: T2, Acinetobacter WS/DGAT (Acinetobacter baylyi, UniProt Q8GGG1); assay: Coupled enzyme assay (TLC); format: biochemical, Acinetobacter baylyi ADP1; details: phytanic acid and phytol as substrates
T2 construct: His6 (N); made in house
T2 sequence (Q8GGG1 1-458): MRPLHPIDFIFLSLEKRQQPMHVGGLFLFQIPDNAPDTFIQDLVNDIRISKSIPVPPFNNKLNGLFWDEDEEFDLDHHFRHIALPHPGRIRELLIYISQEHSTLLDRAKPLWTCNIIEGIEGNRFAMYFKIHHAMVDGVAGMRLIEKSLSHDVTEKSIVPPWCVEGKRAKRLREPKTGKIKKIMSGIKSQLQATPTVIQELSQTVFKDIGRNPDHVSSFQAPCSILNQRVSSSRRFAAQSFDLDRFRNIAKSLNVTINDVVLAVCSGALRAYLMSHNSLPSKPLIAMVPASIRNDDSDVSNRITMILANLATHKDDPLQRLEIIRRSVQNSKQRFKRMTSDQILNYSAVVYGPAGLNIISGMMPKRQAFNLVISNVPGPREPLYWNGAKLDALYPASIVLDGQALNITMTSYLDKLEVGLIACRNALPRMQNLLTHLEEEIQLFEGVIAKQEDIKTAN
Description: (§2) Stock solutions of various substrates were prepared in 50 mM Tris-HCl buffer (pH 8) containing 1% gum arabic, 12.5 μg bovine serum albumin ml^−1, 0.1% taurocholate, and either 100 mM fatty acid, isoprenoid acid, fatty alcohol, or isoprenoid alcohol. Stock solutions were sonicated to disperse the substrates. Substrate profiles of the three WS were tested using coupled enzyme in vitro reactions in which the CoA synthetases Acs1 and Acs2 are added to synthesize the CoA-activated fatty acid phytanic acid substrates from corresponding acid precursors for the WS reactions. Assays were carried out in 500-μl reactions containing in 50 mM Tris-HCl buffer (pH 8.0), 12.5 μl of each acid, and alcohol substrate stock solution (final concentrations of each substrate of 250 μM), 10 mM MgCl2, 10 mM CoASH, 10 mM ATP, 5 mM TCEP, 0.1 U of inorganic pyrophosphatase, 0.25 μg of Acs1 and Acs2 CoA synthetase, and 0.5 μg of WS to be tested. Assays were incubated at 37° C. overnight before thin-layer chromatography (TLC) analysis of the reaction products.
(§3) In vitro WS assay samples were extracted with 500 μl of chloroformmethanol (1:1 [vol/vol]), and extracts were analyzed by TLC with Whatman normal phase silica gel 60 plates and developed using hexane-diethyl ether-acetic acid (90:10:1 [vol/vol/vol]). […]

FadD = assay: CoA synthetase assay (HPLC, LC-MS); format: biochemical, Pseudomonas putida; details: purified recombinant protein
WS3 = assay: Coupled enzyme assay, WS substrate profile (TLC); format: biochemical, Marinobacter hydrocarbonoclasticus DSM 8798; details: coupled reaction; palmitic acid with hexadecanol, phytanic acid with phytol
Description: as §2, §3

WS2 [4] = target: T1, WS2; assay: Coupled enzyme assay, WS substrate profile (TLC); format: biochemical, Marinobacter hydrocarbonoclasticus DSM 8798; parameters: key to WE formation (spot intensity of wax ester products on TLC), WS2, C16 / WE formation (spot intensity of wax ester products on TLC), WS2, Phytol / WE formation (spot intensity of wax ester products on TLC), WS2, Farnesol / WE formation (spot intensity of wax ester products on TLC), WS2, C10 / WE formation (spot intensity of wax ester products on TLC), WS2, C12 / WE formation (spot intensity of wax ester products on TLC), WS2, C14: no activity (−); ranging from no activity (−) to most active (+++); ranging from no activity (−) to most active (+++); most active (+++); details: for WE formation (spot intensity of wax ester products on TLC), WS2, Farnesol: alcohol farnesol; for WE formation (spot intensity of wax ester products on TLC), WS2, Farnesol / WE formation (spot intensity of wax ester products on TLC), WS2, Phytol / WE formation (spot intensity of wax ester products on TLC), WS2, C10 / WE formation (spot intensity of wax ester products on TLC), WS2, C12 / WE formation (spot intensity of wax ester products on TLC), WS2, C14 / WE formation (spot intensity of wax ester products on TLC), WS2, C16: 12 h at 37° C., each substrate 250 μM; for WE formation (spot intensity of wax ester products on TLC), WS2, Phytol: alcohol phytol; for WE product formation by WS2 (TLC), in words: coupled reaction, palmitic acid with hexadecanol, phytanic acid with phytol, phytanoyl-CoA with the alcohols named in the value; for WE formation (spot intensity of wax ester products on TLC), WS2, C10: fatty alcohol C10; for WE formation (spot intensity of wax ester products on TLC), WS2, C12: fatty alcohol C12; for WE formation (spot intensity of wax ester products on TLC), WS2, C14: fatty alcohol C14; for WE formation (spot intensity of wax ester products on TLC), WS2, C16: fatty alcohol C16
Description: as §2
as §1, with “In vitro WS assay samples were extracted with 500 μl of chloroformmethanol (1:1 [vol/vol]), and extracts were analyzed by TLC with Whatman normal phase silica gel 60 plates and developed using hexane-diethyl ether-acetic acid (90:10:1 [vol/vol/vol]). TLC” for “TLC”

WS1 [5] = assay: Coupled enzyme assay, WS substrate profile (TLC); format: biochemical, Marinobacter hydrocarbonoclasticus DSM 8798; parameters: key to WE formation (spot intensity of wax ester products on TLC), WS1, C10 / WE formation (spot intensity of wax ester products on TLC), WS1, C12 / WE formation (spot intensity of wax ester products on TLC), WS1, C14 / WE formation (spot intensity of wax ester products on TLC), WS1, C16 / WE formation (spot intensity of wax ester products on TLC), WS1, Phytol / WE formation (spot intensity of wax ester products on TLC), WS1, Farnesol: no activity (−); ranging from no activity (−) to most active (+++); ranging from no activity (−) to most active (+++); most active (+++); details: for WE formation (spot intensity of wax ester products on TLC), WS1, Farnesol: alcohol farnesol; for WE formation (spot intensity of wax ester products on TLC), WS1, Farnesol / WE formation (spot intensity of wax ester products on TLC), WS1, Phytol / WE formation (spot intensity of wax ester products on TLC), WS1, C10 / WE formation (spot intensity of wax ester products on TLC), WS1, C12 / WE formation (spot intensity of wax ester products on TLC), WS1, C14 / WE formation (spot intensity of wax ester products on TLC), WS1, C16: 12 h at 37° C., each substrate 250 μM; for WE formation (spot intensity of wax ester products on TLC), WS1, Phytol: alcohol phytol; for WE product formation by WS1 (TLC), in words: coupled reaction, palmitic acid with hexadecanol, phytanic acid with phytol, phytanoyl-CoA with the alcohols named in the value; for WE formation (spot intensity of wax ester products on TLC), WS1, C10: fatty alcohol C10; for WE formation (spot intensity of wax ester products on TLC), WS1, C12: fatty alcohol C12; for WE formation (spot intensity of wax ester products on TLC), WS1, C14: fatty alcohol C14; for WE formation (spot intensity of wax ester products on TLC), WS1, C16: fatty alcohol C16
Description: as §2
as §1, with “In vitro WS assay samples were extracted with 500 μl of chloroformmethanol (1:1 [vol/vol]), and extracts were analyzed by TLC with Whatman normal phase silica gel 60 plates and developed using hexane-diethyl ether-acetic acid (90:10:1 [vol/vol/vol]). TLC” for “TLC”

Acs4 = assay: CoA synthetase assay (HPLC, LC-MS); format: biochemical, Marinobacter hydrocarbonoclasticus DSM 8798; details: 10 mM acid, 20 min at 37° C.
Description: (§4) In vitro reactions were performed as described previously (Trivedi et al., 2004, Nature, 428:441-445) with some modifications. CoA synthetase assays were carried out in 250-μl reaction volumes containing 50 mM Tris-HCl buffer (pH 7.5), 0.1% Triton X-100, 10 mM MgCl2, 5 mM TCEP, 0.1 U of inorganic pyrophosphatase, and as substrates 10 mM phytanic or fatty acids, 10 mM reduced coenzyme A (CoASH), 10 mM ATP, and 0.5 μg of purified Acs (either 1, 2, 3, or 4) protein. The reactions were incubated for 20 min at 37° C. and stopped with 25 μl of 5% acetic acid, followed by HPLC analysis of the reaction products.
(§5) CoA-synthetase assay samples (25 μl) were resolved on an Agilent 1100 HPLC (Agilent Technologies, Palo Alto, Calif.) equipped with a photodiode array detector set to 259 nm. Samples were separated on a reversed-phase Eclipse XDB-C8 column (Agilent Technologies) at a flow rate of 1 ml min^−1. Solvent A consisted of 20 mM ammonium acetate (pH 5.4) in HPLC-grade water, and solvent B contained acetonitrile and methanol (85:15 [vol/vol]). Acyl-CoA and phytanoyl-CoA products were eluted using the following conditions: solvent A-solvent B at 65:35 from 0 to 5 min, followed by a gradient from solvent A-solvent B at 65:35 to 100% solvent B in 30 min. Liquid chromatography-mass spectrometry (LC-MS) analyses of reaction products were done with an LCQ mass spectrophotometer equipped with an electrospray ionization source (ESI) (Thermo Finnigan). Mass fragmentation spectra were monitored in a mass range of m/z 400 to 1,500 with a negative ESI interface.

Acs2 = assay: CoA synthetase assay (HPLC, LC-MS); format: biochemical, Marinobacter hydrocarbonoclasticus DSM 8798; details: 10 mM acid, 20 min at 37° C.
Description: as §4, §5

Acs1 = assay: CoA synthetase assay (HPLC, LC-MS); format: biochemical, Marinobacter hydrocarbonoclasticus DSM 8798; details: 10 mM acid, 20 min at 37° C.
Description: as §4, §5

Acs3 = assay: CoA synthetase assay (HPLC, LC-MS); format: biochemical, Marinobacter hydrocarbonoclasticus DSM 8798; details: 10 mM acid, 20 min at 37° C.
Description: as §4, §5

SMILES | WE product formation by WS3 (TLC), in words (WS3) | WE formation (spot intensity of wax ester products on TLC), WS2, Farnesol (WS2 [4]) | WE formation (spot intensity of wax ester products on TLC), WS2, Phytol (WS2 [4]) | WE product formation by WS2 (TLC), in words (WS2 [4]) | WE formation (spot intensity of wax ester products on TLC), WS2, C10 (WS2 [4]) | WE formation (spot intensity of wax ester products on TLC), WS2, C12 (WS2 [4]) | WE formation (spot intensity of wax ester products on TLC), WS2, C14 (WS2 [4]) | WE formation (spot intensity of wax ester products on TLC), WS2, C16 (WS2 [4]) | WE formation (spot intensity of wax ester products on TLC), WS1, Farnesol (WS1 [5]) | WE formation (spot intensity of wax ester products on TLC), WS1, Phytol (WS1 [5]) | WE product formation by WS1 (TLC), in words (WS1 [5]) | WE formation (spot intensity of wax ester products on TLC), WS1, C10 (WS1 [5]) | WE formation (spot intensity of wax ester products on TLC), WS1, C12 (WS1 [5]) | WE formation (spot intensity of wax ester products on TLC), WS1, C14 (WS1 [5]) | WE formation (spot intensity of wax ester products on TLC), WS1, C16 (WS1 [5]) | CoA activation by Acs4 (Acs4) | CoA activation by Acs2 (Acs2) | CoA activation by Acs3 (Acs3) | other results
CCCCCCCC/C=C\CCCCCCCC(=O)SCCNC(=O)CCNC(=O)[C@H](O)C(C)(C)COP(=O)(O)OP(=O)(O)OC[C@H]1O[C@@H](n2cnc3c(N)ncnc32)[C@H](O)[C@@H]1OP(=O)(O)O [Oleoyl-CoA] |  |  |  |  |  |  |  |  |  |  |  |  |  |  |  |  |  |  | DGAT activity of WS2 (TAG product on TLC) (WS2 [1]): did not show DGAT activity; DGAT activity of WS1 (TAG product on TLC) (WS1 [2]): TAG products were only detected for WS1; also recorded: Only WS1 shows DGAT activity; Kcat of WS2 (WS2 [3]; steady state on ethanol and oleoyl-CoA): 59 s⁻¹; Vmax of WS2 (WS2 [3]; steady state, varied substrate 10 μM-250 μM, other substrate (oleoyl-CoA or ethanol) 500 μM): 1667 μmol (mg/min)^−1
CC(C)CCCC(C)CCCC(C)CCCC(C)CC(=O)O (stereo not shown) [Phytanic acid] | no products were observed | ++ | ++ | Products were observed | − | − | − | − | + | + | Products were observed | − | − | − | − | Only Acs2 converted phytanic acid into phytanoyl-CoA | converted phytanic acid into phytanoyl-CoA | Only Acs2 converted phytanic acid into phytanoyl-CoA | Isoprenoid WE formation by Acinetobacter WS/DGAT (Acinetobacter WS/DGAT): did not show isoprenoid WE formation; CoA activation by P. putida FadD (FadD): does not synthesize phytanoyl-CoA; also recorded: did not activate phytanic acid; CoA activation by Acs1 (Acs1): Only Acs2 converted phytanic acid into phytanoyl-CoA
CCCCCCCCCCCCCCCC(=O)O [C16, palmitic acid] | no products were observed | ++ | + | Products were observed | + | + | ++ | +++ | ++ | + | Products were observed | + | ++ | + | +++ | most activity | most activity | most activity | 
